The text below walks through data of patent publication US8377884B2, “Variants of C-type natriuretic peptides” (Biomarin Pharmaceutical Inc., priority 2007, dated 2013).

Like-named read-outs stand apart in the source and are kept apart here. Bridge positions count the residues as written; N and C are the ends. Ends that are not written are not given here. Peptide text beside a SMILES is read from it. PEO24 = monodispersed, 1.2 kDa

The test deals with T1, NPR-B (Mus musculus, UniProt Q6VVW5).
T1 construct: Murine NIH3T3 cells express endogenously the CNP signaling receptor, NPR-B; endogenous in cells; host or cells: NIH3T3 (murine fibroblasts)
T1 sequence (Q6VVW5 17-1047): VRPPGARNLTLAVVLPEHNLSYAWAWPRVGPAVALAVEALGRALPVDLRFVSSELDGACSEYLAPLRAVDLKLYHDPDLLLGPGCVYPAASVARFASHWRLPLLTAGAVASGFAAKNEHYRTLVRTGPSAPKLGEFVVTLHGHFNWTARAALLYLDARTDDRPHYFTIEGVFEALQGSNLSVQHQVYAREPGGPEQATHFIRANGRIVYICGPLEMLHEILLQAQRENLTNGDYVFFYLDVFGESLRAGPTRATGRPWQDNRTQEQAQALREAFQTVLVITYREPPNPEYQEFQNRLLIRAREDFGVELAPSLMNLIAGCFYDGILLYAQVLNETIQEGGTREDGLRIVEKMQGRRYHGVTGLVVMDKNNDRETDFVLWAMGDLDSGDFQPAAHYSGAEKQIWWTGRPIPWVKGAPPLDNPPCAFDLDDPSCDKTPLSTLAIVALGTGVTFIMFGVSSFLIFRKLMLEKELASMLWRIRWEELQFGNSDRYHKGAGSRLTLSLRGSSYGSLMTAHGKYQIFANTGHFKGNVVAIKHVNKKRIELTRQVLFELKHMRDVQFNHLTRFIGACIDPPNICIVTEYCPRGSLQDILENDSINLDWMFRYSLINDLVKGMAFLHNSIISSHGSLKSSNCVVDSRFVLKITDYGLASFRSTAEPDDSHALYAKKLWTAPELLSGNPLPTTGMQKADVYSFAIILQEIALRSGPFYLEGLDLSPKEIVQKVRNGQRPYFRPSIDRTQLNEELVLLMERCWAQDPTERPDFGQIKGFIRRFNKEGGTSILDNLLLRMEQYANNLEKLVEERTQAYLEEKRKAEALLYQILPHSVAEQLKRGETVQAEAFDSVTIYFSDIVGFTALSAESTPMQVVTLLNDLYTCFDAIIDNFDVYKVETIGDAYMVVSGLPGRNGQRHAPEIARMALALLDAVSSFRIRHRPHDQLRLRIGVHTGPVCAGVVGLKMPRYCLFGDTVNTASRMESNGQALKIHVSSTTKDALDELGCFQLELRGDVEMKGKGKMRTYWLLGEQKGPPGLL
The test can be described thus: Stimulation of cGMP production in NIH3T3 cells. To be noted: for cGMP response relative to 1 uM CNP22 (%) at 0.01 µM: read-out: cGMP Response rel. to 1 uM CNP22, 10 nM; for cGMP response relative to 1 uM CNP22 (%) at 1 µM: read-out: cGMP Response rel. to 1 uM CNP22, 1 uM. Type of test: cell-based, Murine.

The mark [1] stands for this setting: NIH3T3 cells, 10 nM natriuretic peptide, normalized to cell number and cGMP production with 1 uM wtCNP22.
[2] abbreviates: NIH3T3 cells, 1 uM natriuretic peptide, normalized to cell number and cGMP production with 1 uM wtCNP22.

For `CC[C@H](C)[C@@H]1NC(=O)[C@H](CCCNC(=N)N)NC(=O)[C@H](CC(=O)O)NC(=O)[C@H](CC(C)C)NC(=O)[C@H](CCCCN)NC(=O)[C@H](CC(C)C)NC(=O)CNC(=O)[C@H](Cc2ccccc2)NC(=O)[C@@H](NC(=O)CNC(=O)[C@H](CCCCN)NC(=O)[C@H](CO)NC(=O)[C@H](CC(C)C)NC(=O)CNC(=O)[C@H](CCC(N)=O)NC(=O)[C@H](CCC(N)=O)NC(=O)[C@H](CC(N)=O)NC(=O)[C@H](C)NC(=O)CNC(=O)[C@H](Cc2c[nH]cn2)NC(=O)[C@@H]2CCCN2C(=O)[C@H](Cc2c[nH]cn2)NC(=O)[C@H](CCC(N)=O)NC(=O)[C@H](CCC(=O)O)NC(=O)[C@H](Cc2c[nH]cn2)NC(=O)[C@H](CO)NC(=O)[C@H](Cc2c[nH]cn2)NC(=O)[C@H](Cc2c[nH]cn2)NC(=O)CN)CSSC[C@@H](C(=O)O)NC(=O)CNC(=O)[C@H](CC(C)C)NC(=O)CNC(=O)[C@H](CO)NC(=O)[C@H](CCSC)NC(=O)[C@H](CO)NC(=O)CNC1=O` [CQ] (H-GHHSHEQHPHGANQQGLSKGCFGLKLDRIGSMSGLGC-OH; disulfide 21-37 (inferred); N-terminus and C-terminus assumed), for the setting “NIH3T3, […]”, the cGMP response relative to 1 uM CNP22 (%) at 0.01 µM came to 16% and the cGMP response relative to 1 uM CNP22 (%) at 1 µM came to 95%.
Take `CC[C@H](C)[C@@H]1NC(=O)[C@H](CCCNC(=N)N)NC(=O)[C@H](CC(=O)O)NC(=O)[C@H](CC(C)C)NC(=O)[C@H](CCCCN)NC(=O)[C@H](CC(C)C)NC(=O)CNC(=O)[C@H](Cc2ccccc2)NC(=O)[C@@H](NC(=O)CNC(=O)[C@H](CCCNC(=N)N)NC(=O)[C@H](CO)NC(=O)[C@H](CC(C)C)NC(=O)CN)CSSC[C@@H](C(=O)O)NC(=O)CNC(=O)[C@H](CC(C)C)NC(=O)CNC(=O)[C@H](CO)NC(=O)[C@H](C(C)C)NC(=O)[C@H](CO)NC(=O)CNC1=O` [AG] (H-GLSRGCFGLKLDRIGSVSGLGC-OH; disulfide 6-22 (inferred); N-terminus and C-terminus assumed): for the setting “NIH3T3, […]”, the cGMP response relative to 1 uM CNP22 (%) at 0.01 µM was 10% and the cGMP response relative to 1 uM CNP22 (%) at 1 µM worked out at 65%.
As to “PEO24-R-CNP22, K4R: R-CNP22, K4R conjugated at the N-terminus to PEO24 (PEO24-RGLSRGCFGLKLDRIGSMSGLGC; disulfide 7-23 (inferred))”, under setting [1], the “cGMP Response rel. to 1 uM CNP22, 10 nM” value is 15 ± 2. For the same molecule, under setting [2], the “cGMP Response rel. to 1 uM CNP22, 1 uM” value is reported as 75 ± 12.
On to `CC[C@H](C)[C@@H]1NC(=O)[C@H](CCCNC(=N)N)NC(=O)[C@H](CC(=O)O)NC(=O)[C@H](CC(C)C)NC(=O)[C@H](CCCCN)NC(=O)[C@H](CC(C)C)NC(=O)CNC(=O)[C@H](Cc2ccccc2)NC(=O)[C@@H](NC(=O)CNC(=O)[C@H](CCCNC(=N)N)NC(=O)[C@H](CO)NC(=O)[C@H](CC(C)C)NC(=O)CN)CSSC[C@@H](C(=O)O)NC(=O)CNC(=O)[C@H](C(C)C)NC(=O)CNC(=O)[C@H](CO)NC(=O)[C@H](CCSC)NC(=O)[C@H](CO)NC(=O)CNC1=O` [AJ] (H-GLSRGCFGLKLDRIGSMSGVGC-OH; disulfide 6-22 (inferred); N-terminus and C-terminus assumed), for which the cGMP response relative to 1 uM CNP22 (%) at 0.01 µM under setting [1] came out at 0.2%. The cGMP response relative to 1 uM CNP22 (%) at 1 µM under setting [2] was determined as 8%.
On to `CC[C@H](C)[C@@H]1NC(=O)[C@H](CCCNC(=N)N)NC(=O)[C@H](CC(=O)O)NC(=O)[C@H](CC(C)C)NC(=O)[C@H](CCCCN)NC(=O)[C@H](CC(C)C)NC(=O)CNC(=O)[C@H](Cc2ccccc2)NC(=O)[C@@H](NC(=O)CNC(=O)[C@H](CCCCN)NC(=O)[C@H](CO)NC(=O)[C@H](CC(C)C)NC(=O)CNC(=O)[C@H](CCCCN)NC(=O)[C@H](CCC(N)=O)NC(=O)[C@H](CC(N)=O)NC(=O)[C@H](C)NC(=O)CNC(=O)[C@H](CCCCN)NC(=O)[C@H](Cc2ccc(O)cc2)NC(=O)[C@H](CCCCN)NC(=O)[C@H](CCCNC(=N)N)NC(=O)[C@H](C)NC(=O)[C@H](CC(N)=O)NC(=O)[C@@H]2CCCN2C(=O)[C@H](Cc2c[nH]cn2)NC(=O)[C@H](CCC(=O)O)NC(=O)[C@H](CCC(N)=O)NC(=O)CN)CSSC[C@@H](C(=O)O)NC(=O)CNC(=O)[C@H](CC(C)C)NC(=O)CNC(=O)[C@H](CO)NC(=O)[C@H](CCSC)NC(=O)[C@H](CO)NC(=O)CNC1=O` [CT] (H-GQEHPNARKYKGANQKGLSKGCFGLKLDRIGSMSGLGC-OH; disulfide 22-38 (inferred); N-terminus and C-terminus assumed), for which, under setting [1], the cGMP response relative to 1 uM CNP22 (%) at 0.01 µM stood at 60%. Besides, the cGMP response relative to 1 uM CNP22 (%) at 1 µM under setting [2] was 121%.
For `CC[C@H](C)[C@@H]1NC(=O)[C@H](CCCNC(=N)N)NC(=O)[C@H](CC(=O)O)NC(=O)[C@H](CC(C)C)NC(=O)[C@H](CCCCN)NC(=O)[C@H](CC(C)C)NC(=O)CNC(=O)[C@H](Cc2ccc(O)cc2)NC(=O)[C@@H](NC(=O)CNC(=O)[C@H](CCCNC(=N)N)NC(=O)[C@H](CO)NC(=O)[C@H](CC(C)C)NC(=O)CN)CSSC[C@@H](C(=O)O)NC(=O)CNC(=O)[C@H](CC(C)C)NC(=O)CNC(=O)[C@H](CO)NC(=O)[C@H](CCSC)NC(=O)[C@H](CO)NC(=O)CNC1=O` [Z] (H-GLSRGCYGLKLDRIGSMSGLGC-OH; disulfide 6-22 (inferred); N-terminus and C-terminus assumed), the cGMP response relative to 1 uM CNP22 (%) at 0.01 µM under setting [1] was 2%. Besides, under setting [2], the cGMP response relative to 1 uM CNP22 (%) at 1 µM is 18%.
Take `CC[C@H](C)[C@@H]1NC(=O)[C@H](CCCNC(=N)N)NC(=O)[C@H](CC(=O)O)NC(=O)[C@H](CC(C)C)NC(=O)[C@H](CCCCN)NC(=O)[C@H](CC(C)C)NC(=O)CNC(=O)[C@H](Cc2ccccc2)NC(=O)[C@@H](NC(=O)CNC(=O)[C@H](CCCCN)NC(=O)[C@H](CO)NC(=O)[C@H](CC(C)C)NC(=O)CNC(=O)[C@H](CCC(N)=O)NC(=O)[C@H](CCC(N)=O)NC(=O)[C@H](CC(N)=O)NC(=O)[C@H](C)NC(=O)CNC(=O)[C@H](CCCCN)NC(=O)[C@H](Cc2ccc(O)cc2)NC(=O)[C@H](CCCCN)NC(=O)[C@H](CCCNC(=N)N)NC(=O)[C@H](C)NC(=O)[C@H](CC(N)=O)NC(=O)[C@@H]2CCCN2C(=O)[C@H](Cc2c[nH]cn2)NC(=O)[C@H](CCC(=O)O)NC(=O)[C@H](CCC(N)=O)NC(=O)CN)CSSC[C@@H](C(=O)O)NC(=O)CNC(=O)[C@H](CC(C)C)NC(=O)CNC(=O)[C@H](CO)NC(=O)[C@H](CCSC)NC(=O)[C@H](CO)NC(=O)CNC1=O` [CU] (H-GQEHPNARKYKGANQQGLSKGCFGLKLDRIGSMSGLGC-OH; disulfide 22-38 (inferred); N-terminus and C-terminus assumed): the cGMP response relative to 1 uM CNP22 (%) at 0.01 µM under setting [1] amounted to 9%. Moreover, under setting [2], the cGMP response relative to 1 uM CNP22 (%) at 1 µM turned out to be 57%.
As to `CC[C@H](C)[C@@H]1NC(=O)[C@H](CCCNC(=N)N)NC(=O)[C@H](CC(=O)O)NC(=O)[C@H](CC(C)C)NC(=O)[C@H](CCCCN)NC(=O)[C@H](CC(C)C)NC(=O)CNC(=O)[C@H](Cc2ccccc2)NC(=O)[C@@H](NC(=O)CNC(=O)[C@H](CCCCN)NC(=O)[C@H](CO)NC(=O)[C@H](CC(C)C)NC(=O)CNC(=O)[C@H](CCC(N)=O)NC(=O)[C@H](CCC(N)=O)NC(=O)[C@H](CC(N)=O)NC(=O)[C@H](C)NC(=O)CNC(=O)[C@H](Cc2c[nH]cn2)NC(=O)[C@@H](NC(=O)[C@H](CC(=O)O)NC(=O)[C@H](Cc2c[nH]cn2)NC(=O)[C@H](CCC(=O)O)NC(=O)[C@H](Cc2c[nH]cn2)NC(=O)[C@@H]2CCCN2C(=O)[C@H](Cc2c[nH]cn2)NC(=O)[C@H](Cc2c[nH]cn2)NC(=O)[C@H](C)NC(=O)CN)[C@@H](C)O)CSSC[C@@H](C(=O)O)NC(=O)CNC(=O)[C@H](CC(C)C)NC(=O)CNC(=O)[C@H](CO)NC(=O)[C@H](CCSC)NC(=O)[C@H](CO)NC(=O)CNC1=O` [CR] (H-GAHHPHEHDTHGANQQGLSKGCFGLKLDRIGSMSGLGC-OH; disulfide 22-38 (inferred); N-terminus and C-terminus assumed), for the setting “NIH3T3, […]”, the cGMP response relative to 1 uM CNP22 (%) at 0.01 µM was determined as 14 ± 5% and the cGMP response relative to 1 uM CNP22 (%) at 1 µM was found to be 77 ± 12%.
